Results taken from paper PMC4778904, “The Curcumin Analog C-150, Influencing NF-κB, UPR and Akt/Notch Pathways Has Potent Anticancer Activity In Vitro and In Vivo” (PLoS ONE, 2016).

Target: T1, PKC-alpha (Homo sapiens, UniProt P17252)
T1 construct: gene PRKCA
Test: IMAP-FP kinase activity assay (Proteros selectivity panel), single concentration […], ATP at Km app; […] inhibition
Type: biochemical

- inhibition at 1 µM: 32.8%
SMILES: C=CC(=O)NC(c1ccccc1)C(C(=O)/C=C/c1cccc(O)c1)C(=O)/C=C/c1cccc(O)c1 (stereo not shown) [compound 3, N-((E)-5-(3-hydroxyphenyl)-2-((E)-3-(3-hydroxyphenyl)acryloyl)-3-oxo-1-phenylpent-4-en-1-yl)acrylamide]
